System: K98450-129-R-PDC complex spheroid growth, percent test/control
Experiment: Anticancer human tumor K98450-129-R-PDC patient-derived colon adenocarcinoma cell line growth inhibition [RAS]
Details: for IC50: curve of first compound; for viability, T/C: stronger effect = lower value
Method in brief: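 Multi-cell-type spheroids: tumor cells plus HUVEC endothelial cells and mesenchymal stem cells. RAS-pathway inhibitors were combined with targeted agents, each dosed in half-log steps down from clinical Cmax, or from 10 microM when Cmax was unknown.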

[1] = second compound 0.000949 µM, first compound 0.00316 µM
[2] = second compound 0.000949 µM, first compound 0.01 µM
[3] = second compound 0.000949 µM, first compound 0.0316 µM
[4] = second compound 0.000949 µM, first compound 0.1 µM
[5] = second compound 0.000949 µM, first compound 0.316 µM
[6] = second compound 0.000949 µM, first compound 1 µM
[7] = second compound 0.003 µM, first compound 0.00316 µM
[8] = second compound 0.003 µM, first compound 0.01 µM
[9] = second compound 0.003 µM, first compound 0.0316 µM
[10] = second compound 0.003 µM, first compound 0.1 µM
[11] = second compound 0.003 µM, first compound 0.316 µM
[12] = second compound 0.003 µM, first compound 1 µM
[13] = second compound 0.00949 µM, first compound 0.00316 µM
[14] = second compound 0.00949 µM, first compound 0.01 µM
[15] = second compound 0.00949 µM, first compound 0.0316 µM
[16] = second compound 0.00949 µM, first compound 0.1 µM
[17] = second compound 0.00949 µM, first compound 0.316 µM
[18] = second compound 0.00949 µM, first compound 1 µM
[19] = second compound 0.03 µM, first compound 0.00316 µM
[20] = second compound 0.03 µM, first compound 0.01 µM
[21] = second compound 0.03 µM, first compound 0.0316 µM
[22] = second compound 0.03 µM, first compound 0.1 µM
[23] = second compound 0.03 µM, first compound 0.316 µM
[24] = second compound 0.03 µM, first compound 1 µM
[25] = second compound 0.0949 µM, first compound 0.00316 µM
[26] = second compound 0.0949 µM, first compound 0.01 µM
[27] = second compound 0.0949 µM, first compound 0.0316 µM
[28] = second compound 0.0949 µM, first compound 0.1 µM
[29] = second compound 0.0949 µM, first compound 0.316 µM
[30] = second compound 0.0949 µM, first compound 1 µM
[31] = second compound 0.3 µM, first compound 0.00316 µM
[32] = second compound 0.3 µM, first compound 0.01 µM
[33] = second compound 0.3 µM, first compound 0.0316 µM
[34] = second compound 0.3 µM, first compound 0.1 µM
[35] = second compound 0.3 µM, first compound 0.316 µM
[36] = second compound 0.3 µM, first compound 1 µM
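Also: spheroids exposed to agents for seven days before the viability readout.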
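For viability, T/C in this document: luminescence used as a proxy for viable cell amount.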

With `C=CC(=O)Nc1cc(Nc2nccc(-c3cn(C)c4ccccc34)n2)c(OC)cc1N(C)CCN(C)C` + CCn1c(-c2cccnc2C(C)OC)c2c3cc(ccc31)N1CCOC(CC(NC(=O)C(C(C)C)N(C)C(=O)C3(F)CCN(C(=O)C#CC(C)(C)N(C)C)CC3)C(=O)N3CCCC(N3)C(=O)OCC(C)(C)C2)C1 the IC50 (second compound 0.000949 µM) was 85 nM, the IC50 (second compound 0.003 µM) was 21.5 nM and the IC50 (second compound 0.00949 µM) was < 3.16 nM. The IC50 (second compound 0.03 µM) was < 3.16 nM, the IC50 (second compound 0.0949 µM) was < 3.16 nM and the IC50 (second compound 0.3 µM) was < 3.16 nM. It also gave a viability, T/C [1] of 76.9%, a viability, T/C [2] of 63.9% and a viability, T/C [3] of 77.4%. The viability, T/C [4] was 44.5%, the viability, T/C [5] was 20.1% and the viability, T/C [6] was 8.96%. The viability, T/C [7] was 59.5%, the viability, T/C [8] was 51.5% and the viability, T/C [9] was 48.8%. It also gave a viability, T/C [10] of 24.4%, a viability, T/C [11] of 14.3% and a viability, T/C [12] of 10.2%. The viability, T/C [13] was 39.2%, the viability, T/C [14] was 41.6% and the viability, T/C [15] was 28.4%. For the same molecule, the viability, T/C [16] was 20.9%, the viability, T/C [17] was 11.1% and the viability, T/C [18] was 8.95%. It also gave a viability, T/C [19] of 37%, a viability, T/C [20] of 30.9% and a viability, T/C [21] of 28.4%. It also gave a viability, T/C [22] of 18.1%, a viability, T/C [23] of 9.5% and a viability, T/C [24] of 9.54%. The viability, T/C [25] was 34%, the viability, T/C [26] was 32.4% and the viability, T/C [27] was 26.2%. For the same molecule, the viability, T/C [28] was 16.2%, the viability, T/C [29] was 11% and the viability, T/C [30] was 9%. The viability, T/C [31] was 34%, the viability, T/C [32] was 28.9% and the viability, T/C [33] was 25.3%. It also gave a viability, T/C [34] of 16.5%, a viability, T/C [35] of 10.1% and a viability, T/C [36] of 9.52%.

With `O=C(c1ccc(F)c(F)c1Nc1ccc(I)cc1F)N1CC(O)([C@@H]2CCCCN2)C1` + CCn1c(-c2cccnc2C(C)OC)c2c3cc(ccc31)N1CCOC(CC(NC(=O)C(C(C)C)N(C)C(=O)C3(F)CCN(C(=O)C#CC(C)(C)N(C)C)CC3)C(=O)N3CCCC(N3)C(=O)OCC(C)(C)C2)C1 the IC50 (second compound 0.000949 µM) was 64.7 nM, the IC50 (second compound 0.003 µM) was 9.15 nM and the IC50 (second compound 0.00949 µM) was < 3.16 nM. For the same molecule, the IC50 (second compound 0.03 µM) was < 3.16 nM, the IC50 (second compound 0.0949 µM) was < 3.16 nM and the IC50 (second compound 0.3 µM) was < 3.16 nM. It also gave a viability, T/C [1] of 76.5%, a viability, T/C [2] of 53.9% and a viability, T/C [3] of 63.3%. For the same molecule, the viability, T/C [4] was 42.2%, the viability, T/C [5] was 6.87% and the viability, T/C [6] was 2.59%. It also gave a viability, T/C [7] of 57.1%, a viability, T/C [8] of 44.8% and a viability, T/C [9] of 40.7%. For the same molecule, the viability, T/C [10] was 18%, the viability, T/C [11] was 6.5% and the viability, T/C [12] was 2.42%. The viability, T/C [13] was 41.7%, the viability, T/C [14] was 32% and the viability, T/C [15] was 22%. The viability, T/C [16] was 14.2%, the viability, T/C [17] was 5.98% and the viability, T/C [18] was 2.66%. It also gave a viability, T/C [19] of 27.4%, a viability, T/C [20] of 33.5% and a viability, T/C [21] of 25.5%. For the same molecule, the viability, T/C [22] was 11%, the viability, T/C [23] was 6.18% and the viability, T/C [24] was 2.44%. It also gave a viability, T/C [25] of 28.3%, a viability, T/C [26] of 24.3% and a viability, T/C [27] of 19.7%. The viability, T/C [28] was 10.6%, the viability, T/C [29] was 5.39% and the viability, T/C [30] was 2.34%. It also gave a viability, T/C [31] of 28.5%, a viability, T/C [32] of 26.5% and a viability, T/C [33] of 21.9%. For the same molecule, the viability, T/C [34] was 10.1%, the viability, T/C [35] was 4.51% and the viability, T/C [36] was 2.36%.

— PubChem BioAssay AID2060891 (Molecular Pharmacology Branch, DTP, NCI, 2025)
